Data taken from PMC3625477 (Journal of acquired immune deficiency syndromes (1999), 2013).
Where “and” joins values, the source holds several entries; their conditions need not be identical. Equal entries are not always repeated. Where two headings read alike, the source gives them in different places.

What was measured:
Total = assay type: in vivo, HIV-infected pregnant women; details: for concentration at 12 h / AUC(0-t) / Cmax: plasma; for concentration at 12 h: oral, C12h; for AUC(0-t) / Cmax: po; for AUC(0-t): AUC0–12h
[1] = assay type: in vivo, HIV-infected pregnant women; details: for concentration at 12 h / AUC(0-t) / Cmax: female, human, plasma; for concentration at 12 h: oral, C12h; for concentration at 12 h / AUC(0-t) / Cmax / C12h / Cl: protein unbound, median; for AUC(0-t) / Cmax: po; for AUC(0-t): AUC0–12h
wild type virus (HIV) = details: unbound lopinavir; cited from earlier work
wild-type virus = details: total lopinavir; cited from earlier work
[2] = test system: blood plasma proteins albumin and alpha-1-acid-glycoprotein (AAG); details: cited from earlier work
[3] = 8 wks postpartum (PK4), LPV/RTV 400mg/100mg twice daily
[4] = 20–24 wks (PK1), LPV/RTV 400mg/100mg twice daily
[5] = 30 wks (PK2), LPV/RTV 400mg/100mg twice daily
[6] = 32 wks (PK3), LPV/RTV 500mg/125mg twice daily
[7] = female, human, total (bound + unbound), 8 wks postpartum (PK4), LPV/RTV 400mg/100mg twice daily, median
[8] = female, human, total (bound + unbound), 20–24 wks (PK1), LPV/RTV 400mg/100mg twice daily, median
[9] = female, human, total (bound + unbound), 30 wks (PK2), LPV/RTV 400mg/100mg twice daily, median
[10] = female, human, total (bound + unbound), 32 wks (PK3), LPV/RTV 500mg/125mg twice daily, median
[11] = total (bound + unbound), 8 wks postpartum (PK4), LPV/RTV 400mg/100mg twice daily, median
[12] = total (bound + unbound), 20–24 wks (PK1), LPV/RTV 400mg/100mg twice daily, median
[13] = total (bound + unbound), 30 wks (PK2), LPV/RTV 400mg/100mg twice daily, median
[14] = total (bound + unbound), 32 wks (PK3), LPV/RTV 500mg/125mg twice daily, median

## Cc1cccc(C)c1OCC(=O)N[C@@H](Cc1ccccc1)[C@@H](O)C[C@H](Cc1ccccc1)NC(=O)[C@H](C(C)C)N1CCCNC1=O [Lopinavir, lopinavir]
Total; female, human, in vivo, 12 h
  postpartum total C12h higher than at any point during pregnancy: 38–80%
Total; second trimester, standard-dose LPV/RTV, 12 participants
  women with total lopinavir C12h below 4 µg/mL: 33%
[1]; PK2 vs PK3
  increase in protein-unbound AUC0–12h with the increased dose: < 15%
[1]; all visits
  share of all unbound concentrations below the wild type IC50 of 0.00064 µg/mL: Less than 2%
[1]; [3]
  concentration at 12 h: 160 ng/mL
  AUC(0-t): 2600 ng·h/mL
  Cmax: 280 ng/mL
  C12h: 160 ng/mL
  Cl: 92 L/h
[1]; [4]
  concentration at 12 h: 150 ng/mL
  AUC(0-t): 1600 ng·h/mL
  Cmax: 180 ng/mL
  C12h: 150 ng/mL
  Cl: 123 L/h
[1]; [5]
  concentration at 12 h: 100 ng/mL
  AUC(0-t): 1600 ng·h/mL
  Cmax: 210 ng/mL
  C12h: 100 ng/mL
  Cl: 155 L/h
[1]; [6]
  concentration at 12 h: 120 ng/mL
  AUC(0-t): 1800 ng·h/mL
  Cmax: 240 ng/mL
  C12h: 120 ng/mL
  Cl: 131 L/h
Wild type virus (HIV)
  protein-unbound IC50 (50% inhibitory concentration): 0.64 ng/mL and 0.64 to 0.77 ng/mL
wild-type virus
  minimum effective concentration: 1 µg/mL

## CC(C)c1nc(CN(C)C(=O)N[C@H](C(=O)N[C@@H](Cc2ccccc2)C[C@H](O)[C@H](Cc2ccccc2)NC(=O)OCc2cncs2)C(C)C)cs1 [Ritonavir, ritonavir]
Total; [7]
  concentration at 12 h: 280 ng/mL
  Cmax: 620 ng/mL
Total; [8]
  concentration at 12 h: 120 ng/mL
  AUC(0-t): 2500 ng·h/mL
  Cmax: 350 ng/mL
Total; [9]
  concentration at 12 h: 120 ng/mL
  AUC(0-t): 2300 ng·h/mL
  Cmax: 300 ng/mL
Total; [10]
  concentration at 12 h: 150 ng/mL
  AUC(0-t): 2400 ng·h/mL
  Cmax: 360 ng/mL
Total; [11]
  AUC0–12h: 5200 ng·h/mL
  C12h: 280 ng/mL
  Cl (apparent oral clearance): 12 L/h
Total; [12]
  C12h: 120 ng/mL
  Cl (apparent oral clearance): 29 L/h
Total; [13]
  C12h: 120 ng/mL
  Cl (apparent oral clearance): 33 L/h
Total; [14]
  C12h: 150 ng/mL
  Cl (apparent oral clearance): 37 L/h
[1]; [3]
  concentration at 12 h: 30 ng/mL
  AUC(0-t): 500 ng·h/mL
  Cmax: 80 ng/mL
  Cl: 127 L/h
[1]; [4]
  concentration at 12 h: 20 ng/mL
  AUC(0-t): 400 ng·h/mL
  Cmax: 60 ng/mL
  Cl: 169 L/h
[1]; [5]
  concentration at 12 h: 20 ng/mL
  Cmax: 50 ng/mL
  Cl: 261 L/h
[1]; [6]
  concentration at 12 h: 20 ng/mL
  AUC(0-t): 300 ng·h/mL
  Cmax: 50 ng/mL
  Cl: 306 L/h
[2]
  bound to the blood plasma proteins: 98–99%
